Numbering of substitutions follows the chain as printed. The source made the active and inactive calls. The rule behind the calls is not given here.
Key:
[1] = target: T1, Muscarinic acetylcholine receptor M1 (Rattus norvegicus, UniProt P08482); experiment: Displacement of [3H]pirenzepine from cerebral Muscarinic acetylcholine receptor M1
T1 sequence (P08482 whole entry): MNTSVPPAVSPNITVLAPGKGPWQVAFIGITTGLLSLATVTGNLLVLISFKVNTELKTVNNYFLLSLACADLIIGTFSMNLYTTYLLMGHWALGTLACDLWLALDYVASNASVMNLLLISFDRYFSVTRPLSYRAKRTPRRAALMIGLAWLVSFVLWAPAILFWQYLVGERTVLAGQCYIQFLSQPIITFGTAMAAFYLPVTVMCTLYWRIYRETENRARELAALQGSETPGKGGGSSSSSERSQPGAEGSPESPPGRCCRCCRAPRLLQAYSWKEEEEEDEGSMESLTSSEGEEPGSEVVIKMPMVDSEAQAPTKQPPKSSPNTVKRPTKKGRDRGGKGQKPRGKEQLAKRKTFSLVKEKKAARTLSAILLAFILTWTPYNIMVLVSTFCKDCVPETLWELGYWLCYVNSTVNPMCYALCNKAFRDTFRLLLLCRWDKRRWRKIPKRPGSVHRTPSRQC

[2] = tested on: Mus musculus; experiment: Percent inhibition of the number of pirenzepine-induced rotations in mice, on oral administration (3 mg/kg) 4 hr before the test; assay type: functional
[3] = (§1) Lethal dose in mice after oral administration; assay type: toxicity; conditions: mouse, in vivo
[4] = tested on: Mus musculus; experiment: Percent inhibition of the number of pirenzepine-induced rotations in mice, on orally administration (0.3 mg/kg) 4 hr before the test; assay type: functional
[5] = tested on: Mus musculus; experiment: Percent inhibition of the number of pirenzepine-induced rotations in mice, on oral administration (0.3 mg/kg) 4 hr before the test; assay type: functional
[6] = species on record: Rattus norvegicus; experiment: Compound was tested for inhibitory concentration required for the K+ release of [3H]- GABA from rat striatal slices and reduced at 0.5 and 1 uM; assay type: functional
[7] = species on record: Mus musculus; experiment: Effective dose required to antagonize pirenzepine-induced deficit in passive avoidance learning.; assay type: functional
[8] = tested on: Mus musculus; experiment: Compound was evaluated for toxicity up to 300 mg/kg; NT - No Toxicity; assay type: functional, organism-based; parameters: dose 300 mg/kg
[9] = target: T2, Muscarinic acetylcholine receptor M1 (Homo sapiens, UniProt P11229); experiment: Compound was tested for its affinity for muscarinic M1 receptor
T2 sequence (P11229 whole entry): T1 sequence (P08482 whole entry) with V5A, S254T, S309P, K320R, G337A, V413I

[10] = species on record: Mus musculus; experiment: Compound was tested for the ability to stimulate diacylglycerol formation antagonized by atropine.; assay type: functional, organism-based
[11] = species on record: Mus musculus; experiment: Effective dose required to antagonize scopolamine-induced deficit in passive avoidance learning.; assay type: functional
[12] = species on record: Mus musculus; experiment: Effective dose required to antagonize rotations induced in mice by intrastriatal injection of pirenzepine.; assay type: functional
[13] = tested on: Rattus norvegicus; experiment: Effective dose required to potentiate haloperidol induced catalepsy in rats (p.o.); assay type: functional; conditions: po
[14] = tested on: Mus musculus; experiment: Percent inhibition of the number of pirenzepine-induced rotations in mice, on oral administration(0.3 mg/kg) 4 hr before the test; Inactive; assay type: functional, organism-based
[15] = tested on: Mus musculus; experiment: Percent inhibition of the number of pirenzepine-induced rotations in mice, on oral administration (3 mg/kg) 4 hr before the test; Inactive; assay type: functional, organism-based
[16] = as §1; assay type: toxicity, organism-based; conditions: mouse, in vivo

| IC50 [1] | Structure (SMILES) | other results |
| --- | --- | --- |
| 500 nM | Cc1cc(NCCCN(C)C)ccc1-c1ccccc1 | – |
| 4600 nM | c1ccc(Cc2cc(-c3ccccc3)nnc2NCCN2CCOCC2)cc1 | – |
| 1600 nM | CCc1cc(-c2ccccc2)nnc1NCCN1CCOCC1 | – |
| 4000 nM | Cc1cc(-c2cccs2)nnc1NCCN1CCOCC1 | – |
| 180 nM | CCN(CC)C(C)(C)CNc1cc(-c2ccccc2)c(C)nn1 | Inhibition [5]: 65%; Inhibition [2]: 85% |
| 170 nM | c1ccc(-c2cc(NCCN3CCOCC3)nnc2-c2ccccc2)cc1 | – |
| > 100000 nM | Cc1cc(-c2ccccc2)nnc1NCCN1CCC(O)CC1 | – |
| 400 nM | CCN(CC)C(C)(C)CNc1cc(C2CC2)c(-c2ccccc2)nn1 | – |
| 240 nM | CCN(CC)C(C)(C)CNc1cc(C)c(-c2ccccc2O)nn1 | – |
| 110 nM | CCCc1cc(NCC(C)(C)N(CC)CC)nnc1-c1ccccc1 | Inhibition [5]: 51%; IC50 [6]: 10000 nM; ED50 [7]: 0.027 mg/kg; Activity [8]: inactive; Ki [9]: 112 nM; IC50 [10]: 50000 nM; ED50 [11]: 0.25 mg/kg; ED50 [12]: 0.12 mg/kg; ED50 [13]: 0.1 mg/kg; Inhibition [2]: 78% |
| 2300 nM | CCN(CC)C(C)(C)CNc1cc(C)c(-c2ccccc2)nn1 | – |
| > 100000 nM | O=C(O)c1cc(-c2ccccc2)nnc1NCCN1CCOCC1 | – |
| 370 nM | c1ccc2c(c1)CCCc1cc(NCCN3CCOCC3)nnc1-2 | – |
| 130 nM | CCCc1cc(NCC(C)(C)N(CC)CC)nnc1-c1ccccc1O | – |
| 8 nM | CCN1CCCC1CNc1cc(C)c(-c2ccccc2O)nn1 (configuration not stated) | – |
| 10 nM | CCCc1cc(NC2CCCN2CC)nnc1-c1ccccc1 (single isomer, unassigned; (-)) | – |
| 260 nM | CCN1CCCC1CNc1cc(C)c(-c2ccccc2)nn1 (configuration not stated) | – |
| 800 nM | CCN1CCCC1CNc1nnc(-c2ccccc2)cc1C (configuration not stated) | – |
| 600 nM | c1ccc(-c2cc(-c3ccccc3)c(NCCN3CCOCC3)nn2)cc1 | – |

| IC50 [1] | Structure (SMILES) | other results |
| --- | --- | --- |
| 700 nM | Cc1c(NCCN2CCOCC2)nnc(-c2ccccc2)c1C | – |
| 16000 nM | c1ccc(-c2cc(Cc3ccc4ccccc4c3)c(NCCN3CCOCC3)nn2)cc1 | – |
| 60 nM | CCCc1cc(NC2CCCN2CC)nnc1-c1ccccc1 (single isomer, unassigned; (+)) | – |
| 17000 nM | Cc1cc(-c2ccccc2)nnc1NCCN1CCOCC1 [MINAPRINE] | – |
| 20 nM | CCN1CCCC1CNc1cc(-c2ccccc2)c(C)nn1 (configuration not stated) | inhibition [14]: inactive; inhibition [15]: inactive |
| 1600 nM | CCCc1cc(NCCN2CCOCC2)nnc1-c1ccccc1 | – |
| 6000 nM | Cc1cc(C2CCCCC2)nnc1NCCN1CCOCC1 | – |
| 60000 nM | N#Cc1cc(-c2ccccc2)nnc1NCCN1CCOCC1 [BAZINAPRINE] | – |
| 30 nM | CCCc1cc(NC2CCCN2CC)nnc1-c1ccccc1 (racemic) | – |
| 230 nM | Cc1cc(-c2ccccc2)nnc1NCCN(C)C | – |
| 240 nM | CCN(CC)CCNc1nnc(-c2ccccc2)cc1C | – |
| 12000 nM | c1ccc(-c2ccc(NCCN3CCOCC3)nn2)cc1 | – |
| > 100000 nM | O=Cc1cc(-c2ccccc2)nnc1NCCN1CCOCC1 | – |
| 140 nM | Cc1cc(NCCN(C)C)ccc1-c1ccccc1 | – |
| 50 nM | CCCc1nnc(NCC(C)(C)N(CC)CC)cc1-c1ccccc1 | – |
| > 100000 nM | Cc1cc(-c2ccccc2)nnc1NCCN1CCOCC1=O | – |
| 2000 nM | c1ccc2c(c1)CCCc1cc(NCCCN3CCOCC3)nnc1-2 | – |
| 7500 nM | Cc1cc(-c2ccc3ccccc3c2)nnc1NCCN1CCOCC1 | – |

| Structure (SMILES) | IC50 [1] | other results |
| --- | --- | --- |
| CCN(CC)C(C)(C)CNc1cc(-c2ccccc2)c(-c2ccccc2)nn1 | 40 nM | Inhibition [2]: 113%; LD50 [3]: 250 mg/kg; Inhibition [4]: 87% |
| CCN(CC)C(C)(C)CNc1cc(-c2ccccc2)c(CC(C)C)nn1 | 20 nM | LD50 [16]: 250 mg/kg |

Reference: ChEMBL document CHEMBL1126164, “SR 46559 A and related aminopyridazines are potent muscarinic agonists with no cholinergic syndrome” (Bioorg Med Chem Lett, 1992)
